According to patent US20230021669A1, “TRICYCLIC COMPOUND, AND PREPARATION METHOD THEREFOR AND MEDICAL USE THEREOF” (The National Institutes of Pharmaceutical R&D Co., Ltd., priority 2019, published 2023):

What was measured:
[1] = Determination of aldehyde capture rate (nonenal as model aldehyde, HPLC quantification); details: for Capture rate (slope of the capture curve per unit time): higher absolute value of the slope = higher capture rate; for Aldehyde consumption (100%): nonenal 0.025 mM, compound 0.05 mM, room temperature
Procedure: In the aldehyde capture test disclosed in the present invention, the stable lipid metabolite, nonenal, was used as the model aldehyde to react with the compound of the Example. The specific protocol was as follows.
0.05 mM of the compounds of the Examples of the present invention were precisely weighed respectively and dissolved in 1.2 mL of a mixed solution (v/v=1:1) of triolein (Aladdin, G105172-5g) and linoleic acid (Aladdin, L100442-25g), respectively. 2.5 mL of PBS (Solarbio) solution containing 20% Captisol® (Aladdin, C125030-25g) was added, and the solution was stirred at room temperature overnight. After the example compound was completely dissolved, 0.025 mM nonenal (Sigma, 255653-5G) was added, and the solution was stirred vigorously at room temperature. 200 μL of the sample was added to 800 μL of acetonitrile (Fisher, A995) at 0, 45, 90, 180, 225 and 465 minutes, respectively. The solution was mixed vigorously by vortex for 2 minutes, and centrifuged at a low speed of 1000 r/min for 3 minutes. The supernatant was transferred to an injection vial. The nonenal in the reaction mixture was analyzed quantitatively by high performance liquid chromatography. The adduct resulted from the example compound of the present invention and nonenal was analyzed qualitatively by high performance liquid chromatography-mass spectrometry.
In the developed detection method, the retention time of the model aldehyde nonenal was 2.42 minutes.

[2] = test system: C48/80-induced allergic conjunctivitis (Wistar rats); assay: Therapeutic effect in C48/80-induced allergic conjunctivitis animal model; type: in vivo, rat; details: female Wistar rats, C48/80 on cornea; 10 μL per eye 10 minutes after stimulation; examined 20 minutes after administration
Text: C48/80 is a polymer formed by the condensation of N-methyl-p-methoxyphenethylamine with formaldehyde, which acts directly on G protein and induces mast cell degranulation. After degranulation, the mast cell releases active substances such as histamine and kinin, which can cause acute type I allergic reactions such as telangiectasia and enhanced permeability. It can cause allergic conjunctivitis if applied topically to the ocular surface.
Female Wistar rats were used as the research subjects. Wistar rats (Vital River) were randomly divided into groups (5 animals per group, a total of 10 eyes). The groups are as follows: normal control group, model control group, positive drug group, and example administration group. The inflammation model was established in these groups except for the normal control group. Emedastine Difumarate Eye Drops (Emadine®, Alcon, H20181192) was used as the positive drug. Model establishment, administration and evaluation processes are as follows. […]
After 10 minutes of stimulation, different drug treatments were carried out according to the group settings. […] The clinical score was evaluated individually on the eyes of each animal according to the McDonald-Shadduck scoring system (GB/T 28538-2012).

[3] = test system: noninfectious uveitis animal model (lewis rats); assay: Therapeutic effect in lipopolysaccharide-induced noninfectious uveitis animal model; type: in vivo, rat
Procedure: Female lewis rats were used as the research subjects. Lewis rats (Vital River) were randomly divided into groups (4 animals per group, a total of 8 eyes). The groups are as follows: normal control group, model control group, and example administration group. The inflammation model was established in these groups except for the normal control group.
(2) Formulation of drug solution: 10 mg of the compound of Example 4 of the present invention was weighed and dissolved in 1 mL of the vehicle stock solution, and the resulting solution was made up to 2 mL with water for injection. The content of each substance is as follows: Na2HPO4.12H2O 0.83%, NaH2PO4.2H2O 0.017%, ρ-cyclodextrin 9.5%, PEG-400 5.0%, active compound 0.5%.
The animal model was a noninfectious uveitis animal model established by intraperitoneal injection of lipopolysaccharide (derived from Escherichia coli, 055:B5, Sigma, L2880-100MG, injection dose: 2 mg/kg). At the same time of modeling, drug administration was carried out according to the above grouping situation. The normal control group was administered with normal saline, the model control group was administered with blank vehicle, and the example administration group was administered with the eye drops formulated above. The drug was administered by eye instillation to both eyes of each animal, and the eye instillation dose was 20 μL/eye. After the completion of eye instillation, the eyelids were closed for 20 seconds to prevent the loss of the drug. The administration was repeated at 3, 6 and 23 hours after modeling. […] The ocular inflammation of the animals in each group was examined with a slit lamp microscope (Jiangxi Jiangfeng, LYL-S), and evaluated according to the McDonald-Shadduck scoring system (GB/T 28538-2012).
The animals were sacrificed, and the bilateral eyeballs were enucleated. […] Quantitative analysis of total protein in aqueous humor was performed on the supernatant by a BCA protein quantification kit (Beyotime, P0010).

Row | SMILES | Capture rate (slope of the capture curve per unit time) ([1]; 225 minutes) | Aldehyde consumption (100%) ([1]; 225 minutes) [%] | Capture rate (slope of the capture curve per unit time) ([1]; 465 minutes) | Aldehyde consumption (100%) ([1]; 465 minutes) [%] | Therapeutic effect on allergic conjunctivitis (McDonald-Shadduck clinical score, FIG. 2) [2] | Protein concentration in aqueous humor ([3]; female lewis rats, LPS 2 mg/kg i.p., 0.5% eye drops 20 μL/eye at 0, 3, 6, 23 h, 24 hours after modeling, BCA, mean ± standard deviation) [µg/mL] | Ocular score (McDonald-Shadduck scoring system) ([3]; female lewis rats, LPS 2 mg/kg i.p., 0.5% eye drops 20 μL/eye at 0, 3, 6, 23 h, 24 hours after modeling, mean ± standard deviation) | Therapeutic effect in the ocular inflammation animal model (score and aqueous humor protein, in words) ([3]; lewis rats, LPS-induced uveitis, eye drops)
1 | CC(C)(O)c1nc2cc3c(cc2cc1N)OCO3 [Example 1, 2-(7-amino-[1,3]dioxolo[4,5-g]quinolin-6-yl)propan-2-ol] | −0.05 | 10.73 | −0.04 | 18.43 |  |  |  | 
2 | Cc1nc2cc3nc(C(C)(C)O)c(N)cc3cc2o1 [Example 2, 2-(7-amino-2-methyloxazolo[5,4-g]quinolin-6-yl)propan-2-ol] | −0.06 | 11.99 | −0.03 | 12.11 |  |  |  | 
3 | CC(C)(O)c1nc2cc3nc(N4CCOCC4)oc3cc2cc1N [Example 3, 2-(7-amino-2-morpholinooxazolo[5,4-g]quinolin-6-yl)propan-2-ol] | −0.17 | 35.38 | −0.10 | 43.67 |  |  |  | 
4 | CC(C)(O)c1cc2cc3c(cc2cc1N)OCO3 [Example 4, 2-(7-aminonaphtho[2,3-d][1,3]dioxol-6-yl)propan-2-ol] | −0.25 | 52.65 | −0.14 | 66.62 | good therapeutic effect | 840.6 ± 449.7 | 8.4 ± 2.8 | showing a therapeutic effect
5 | Cn1cnc2cc3cc(N)c(C(C)(C)O)nc3cc21 [Example 5, 2-(7-amino-3-methyl-3H-imidazo[4,5-g]quinolin-6-yl)propan-2-ol] | −0.08 | 20.02 | −0.08 | 36.01 |  |  |  | 
6 | CC(C)(O)c1cc2cc3c(cc2cc1N)OCCO3 [Example 6, 2-(8-amino-2,3-dihydronaphtho[2,3-b][1,4]dioxin-7-yl)propan-2-ol] | −0.07 | 16.48 | −0.05 | 22.01 |  |  |  | 
7 | CC(C)(O)c1nc2cc3oc(N4CCOCC4)nc3cc2cc1N [Example 7, 2-(7-amino-2-morpholinooxazolo[4,5-g]quinolin-6-yl)propan-2-ol] | −0.03 | 7.12 | −0.01 | 8.34 |  |  |  | 
8 | CC(C)(O)c1cc2cc3c(cc2cc1N)OCCOCCOCCO3 [Example 8, 2-(14-amino-2,3,5,6,8,9-hexahydronaphtho[2,3-b][1,4,7,10]tetraoxacyclododecin-13-yl) propan-2-ol] | −0.07 | 19.78 | −0.04 | 19.82 |  |  |  | 
9 | Nc1cc2cc3c(cc2cc1C1(O)CC1)OCO3 [Example 9, 1-(7-aminonaphtho[2,3-d][1,3]dioxol-6-yl)cyclopropan-1-ol] | −0.06 | 15.43 | −0.03 | 16.60 |  |  |  | 
